Starred links: 1 amine or outer side, 2 acyl side, 3 side chain; linkers in the order of their positions; H or OH if unused. Positions of bridges follow the written chain, without caps; N, C: chain ends. Non-standard residues stand in square brackets, D forms with d. Residues, ends and D or L forms follow the SMILES beside them. ξ: configuration not given here. X2 = CC[C@H]1C[C@@]1(N[*:1])C(=O)[*:2]; Bta = N[C@@H](Cc1csc2ccccc12)C(=O)O; X3 = C[C@H]1CC1(N[*:1])C(=O)[*:2]; Hyp = O=C(O)[C@@H]1C[C@@H](O)CN1; NMeNle = CCCC[C@H](NC)C(=O)O; NMeA = CN[C@@H](C)C(=O)O; Dab = NCC[C@H](N)C(=O)O; Dap = NC[C@H](N)C(=O)O; Ac3c = NC1(C(=O)O)CC1; Aib = CC(C)(N)C(=O)O; ξC = NC(CS)C(=O)O; Sar = CNCC(=O)O
What follows are molecules tested against T1, PD-1-Ig binding to PD-L1-TVMV-His (PD-L1-His) (Homo sapiens, UniProt Q9NZQ7) (assay: PD-1/PD-L1 Homogenous Time-Resolved Fluorescence (HTRF) binding assay). Settings: PD-1-Ig/PD-L1-His binding; numeric values.
T1 construct: hPDL1(19-239)-TVMV-His; TVMV protease cleavage site (C); made in house; host or cells: HEK293T cells
T1 sequence (Q9NZQ7 with tags, fused parts or gaps): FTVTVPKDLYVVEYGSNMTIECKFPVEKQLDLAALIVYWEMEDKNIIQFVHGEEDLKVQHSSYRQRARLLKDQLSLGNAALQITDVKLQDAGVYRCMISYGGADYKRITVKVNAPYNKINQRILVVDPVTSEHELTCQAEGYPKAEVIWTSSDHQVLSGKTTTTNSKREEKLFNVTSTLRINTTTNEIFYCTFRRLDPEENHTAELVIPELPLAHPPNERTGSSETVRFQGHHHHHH
Description: The ability of the macrocyclic peptides of the present disclosure to bind to PD-L1 was investigated using a PD-1/PD-L1 Homogenous Time-Resolved Fluorescence (HTRF) binding assay.
Homogenous Time-Resolved Fluorescence (HTRF) Assays of Binding of Soluble PD-1 to Soluble PD-L1. Soluble PD-1 and soluble PD-L1 refers to proteins with carboxyl-end truncations that remove the transmembrane-spanning regions and are fused to heterologous sequences, specifically the Fc portion of the human immunoglobuling G sequence (Ig) or the hexahistidine epitope tag (His). All binding studies were performed in an HTRF assay buffer consisting of dPBS supplemented with 0.1% (w/v) bovine serum albumin and 0.05% (v/v) Tween-20. For the PD-1-Ig/PD-L1-His binding assay, inhibitors were pre-incubated with PD-L1-His (10 nM final) for 15 m in 4 μl of assay buffer, followed by addition of PD-1-Ig (20 nM final) in 1 μl of assay buffer and further incubation for 15 m. PD-L1 fusion proteins from either human, cynomologous macaques, mouse, or other species were used. HTRF detection was achieved using europium crypate-labeled anti-Ig monoclonal antibody (1 nM final) and allophycocyanin (APC) labeled anti-His monoclonal antibody (20 nM final). Antibodies were diluted in HTRF detection buffer and 5 μl was dispensed on top of binding reaction. The reaction was allowed to equilibrate for 30 minutes and signal (665 nm/620 nm ratio) was obtained using an EnVision fluorometer. Additional binding assays were established between PD-1-Ig/PD-L2-His (20 and 5 nM, respectively), CD80-His/PD-L1-Ig (100 and 10 nM, respectively) and CD80-His/CTLA4-Ig (10 and 5 nM, respectively). Binding/competition studies between biotinylated Compound No. 71 and human PD-L1-His were performed as follows. Macrocyclic peptide inhibitors were pre-incubated with PD-L1-His (10 nM final) for 60 minutes in 4 μl of assay buffer followed by addition of biotinylated Compound No. 71 (0.5 nM final) in 1 μl of assay buffer. Binding was allowed to equilibrate for 30 minutes followed by addition of europium crypated labeled Streptavidin (2.5 pM final) and APC-labeled anti-His (20 nM final) in 5 μl of HTRF buffer. The reaction was allowed to equilibrate for 30 m and signal (665 nm/620 nm ratio) was obtained using an EnVision fluorometer.
Recombinant Proteins. Carboxyl-truncated human PD-1 (amino acids 25-167) with a C-terminal human Ig epitope tag [hPD-1 (25-167)-3S-IG] and human PD-L1 (amino acids 18-239) with a C-terminal His epitope tag [hPD-L1(19-239)-tobacco vein mottling virus protease cleavage site (TVMV)-His] were expressed in HEK293T cells and purified sequentially by recombinant Protein A affinity chromatography and size exclusion chromatography. Human PD-L2-His (Sino Biologicals), CD80-His (Sino Biologicals), CTLA4-Ig (RnD Systems) were all obtained through commercial sources.
Ranges are as follows: A=0.10-10 μM; B=0.01-0.099 μM; C=0.004-0.0099 μM.

| IC50 | Structure (SMILES) |
| --- | --- |
| 3620 nM | CCCC[C@H]1C(=O)N(C)[C@@H](CCCC)C(=O)N[C@@H](CC(C)C)C(=O)N[C@H](C(=O)NCC(N)=O)CSCC(=O)N[C@@H](Cc2ccc(O)cc2)C(=O)N(C)[C@@H](C)C(=O)N[C@@H](CC(N)=O)C(=O)N2CCC[C@H]2C(=O)N[C@@H](CN)C(=O)N[C@@H](CC(C)C)C(=O)N2C[C@H](O)C[C@H]2C(=O)N[C@@H](Cc2c[nH]c3ccccc23)C(=O)NC2(CC2)C(=O)N[C@@H](Cc2c[nH]c3ccccc23)C(=O)N1C [Example 9008] ({CH2CO}-Y[NMeA]NP[Dap]L[Hyp]W[Ac3c]W[NMeNle][NMeNle]LCG-NH2; thioether N-14) |
| 40 nM | CCCC[C@H]1C(=O)N(C)[C@@H](CCCC)C(=O)NC2(CC2)C(=O)N[C@H](C(=O)NCC(N)=O)CSCC(=O)N[C@@H](Cc2ccc(O)cc2)C(=O)N(C)[C@@H](C)C(=O)N[C@@H](CC(N)=O)C(=O)N2CCC[C@H]2C(=O)N[C@@H](CN)C(=O)N[C@@H](CC(C)C)C(=O)N2C[C@H](O)C[C@H]2C(=O)N[C@@H](Cc2c[nH]c3ccccc23)C(=O)N[C@@H](CCN)C(=O)N[C@@H](Cc2c[nH]c3ccccc23)C(=O)N1C [Example 9006] ({CH2CO}-Y[NMeA]NP[Dap]L[Hyp]W[Dab]W[NMeNle][NMeNle][Ac3c]CG-NH2; thioether N-14) |

Same assay, conditions: PD-1-Ig/PD-L1-His binding; values given as range classes

| Structure (SMILES) | IC50 |
| --- | --- |
| CCCC[C@H]1C(=O)N(C)[C@@H](CCCC)C(=O)N[C@@H](CC(C)C)C(=O)N[C@H](C(=O)NCC(N)=O)CSCC(=O)N[C@@H](Cc2ccc(O)cc2)C(=O)N(C)[C@@H](C)C(=O)N[C@@H](CC(N)=O)C(=O)N2CCC[C@H]2C(=O)N[C@@H](CN)C(=O)N[C@@H](CC(C)C)C(=O)N2C[C@H](O)C[C@H]2C(=O)N[C@@H](Cc2c[nH]c3ccccc23)C(=O)NC(C)(C)C(=O)N[C@@H](Cc2c[nH]c3ccccc23)C(=O)N1C [Example 9007] ({CH2CO}-Y[NMeA]NP[Dap]L[Hyp]W[Aib]W[NMeNle][NMeNle]LCG-NH2; thioether N-14) | 100 to 10000 nM |
| CCCC[C@H]1C(=O)N(C)[C@@H](CCCC)C(=O)N[C@@H](CCCNC(=N)N)C(=O)N[C@H](C(=O)NCC(N)=O)CSCC(=O)N[C@@H](Cc2ccccc2)C(=O)N(C)[C@@H](C)C(=O)N[C@@H](CC(N)=O)C(=O)N2CCC[C@H]2C(=O)N[C@@H](Cc2cnc[nH]2)C(=O)N[C@@H](CC(C)C)C(=O)NC2(CCCC2)C(=O)N[C@@H](Cc2c[nH]c3ccccc23)C(=O)N[C@@H](CO)C(=O)N[C@@H](Cc2c[nH]c3ccccc23)C(=O)N1C [Example 1001] | 100 to 10000 nM |
| CCCC[C@H]1C(=O)N(C)[C@@H](CCCC)C(=O)N[C@@H](CC(C)C)C(=O)N[C@H](C(=O)NCC(N)=O)CSCC(=O)N[C@@H](Cc2ccc(O)cc2)C(=O)N(C)[C@@H](C)C(=O)NC2(CC2)C(=O)N2CCC[C@H]2C(=O)N[C@@H](CN)C(=O)N[C@@H](CC(C)C)C(=O)N2C[C@H](O)C[C@H]2C(=O)N[C@@H](Cc2c[nH]c3ccccc23)C(=O)N[C@@H](CCN)C(=O)N[C@@H](Cc2c[nH]c3ccccc23)C(=O)N1C [Example 9014] ({CH2CO}-Y[NMeA][Ac3c]P[Dap]L[Hyp]W[Dab]W[NMeNle][NMeNle]LCG-NH2; thioether N-14) | 100 to 10000 nM |
| CCCC[C@H]1C(=O)N(C)[C@@H](CCCC)C(=O)N[C@@H](CCCNC(=N)N)C(=O)N[C@H](C(=O)NCC(N)=O)CSCC(=O)N[C@@H](Cc2ccccc2)C(=O)N(C)[C@@H](C)C(=O)N[C@@H](CC(N)=O)C(=O)N2CCC[C@H]2C(=O)N[C@@H](Cc2cnc[nH]2)C(=O)N[C@@H](CC(C)C)C(=O)N(C)CC(=O)N[C@@H](Cc2c[nH]c3ccccc23)C(=O)NC(C)(C)C(=O)N[C@@H](Cc2c[nH]c3ccccc23)C(=O)N1C [Example 1003] ({CH2CO}-F[NMeA]NPHL[Sar]W[Aib]W[NMeNle][NMeNle]RCG-NH2; thioether N-14) | 100 to 10000 nM |
| CCCC[C@H]1C(=O)N(C)[C@@H](CCCC)C(=O)N[C@@H](CCCNC(=N)N)C(=O)N[C@H](C(=O)NCC(N)=O)CSCC(=O)N[C@@H](Cc2ccccc2)C(=O)N(C)[C@@H](C)C(=O)N[C@@H](CC(N)=O)C(=O)N2CCC[C@H]2C(=O)N[C@@H](Cc2cnc[nH]2)C(=O)N[C@@H](CC(C)C)C(=O)NC(C)(C)C(=O)N[C@@H](Cc2c[nH]c3ccccc23)C(=O)N[C@@H](CO)C(=O)N[C@@H](Cc2c[nH]c3ccccc23)C(=O)N1C [Example 1002] | 100 to 10000 nM |
| CCCC[C@H]1C(=O)N(C)[C@@H](CCCC)C(=O)N[C@@H](CC(C)C)C(=O)N[C@H](C(=O)NCC(N)=O)CSCC(=O)N[C@@H](Cc2ccc(O)cc2)C(=O)N(C)[C@@H](C)C(=O)NC(C)(C)C(=O)N2CCC[C@H]2C(=O)N[C@@H](CN)C(=O)N[C@@H](CC(C)C)C(=O)N2C[C@H](O)C[C@H]2C(=O)N[C@@H](Cc2c[nH]c3ccccc23)C(=O)N[C@@H](CCN)C(=O)N[C@@H](Cc2c[nH]c3ccccc23)C(=O)N1C [Example 9013] ({CH2CO}-Y[NMeA][Aib]P[Dap]L[Hyp]W[Dab]W[NMeNle][NMeNle]LCG-NH2; thioether N-14) | 100 to 10000 nM |

The remaining lines, values ahead:

| IC50 | Structure (SMILES) |
| --- | --- |
| 100 to 10000 nM | CCCC[C@H]1C(=O)N(C)[C@@H](CCCC)C(=O)N[C@@H](CCCNC(=N)N)C(=O)NC(C(=O)NCC(N)=O)CSCC(=O)N[C@@H](Cc2ccc(O)cc2)C(=O)N(C)[C@@H](C)C(=O)N[C@@H](CC(N)=O)C(=O)N2C[C@H](O)C[C@H]2C(=O)N[C@@H](Cc2cnc[nH]2)C(=O)N[C@@H](CC(C)C)C(=O)NC2(C[C@@H]2C)C(=O)N[C@@H](Cc2c[nH]c3ccccc23)C(=O)N[C@@H](CO)C(=O)N[C@@H](Cc2csc3ccccc23)C(=O)N1C (stereo partly shown) [Example 10006] ({CH2CO}-Y[NMeA]N[Hyp]HL[X3]WS[Bta][NMeNle][NMeNle]R[ξC]G-NH2; thioether N-14) |
| 4 to 9.9 nM | CCCC[C@H]1C(=O)N(C)[C@@H](CCCC)C(=O)N[C@@H](CCCNC(=N)N)C(=O)NC(C(=O)NCC(N)=O)CSCC(=O)N[C@@H](Cc2ccc(O)cc2)C(=O)NC2(CC2)C(=O)N[C@@H](CC(N)=O)C(=O)N2CCC[C@H]2C(=O)N[C@@H](Cc2c[nH]cn2)C(=O)N[C@@H](CC(C)C)C(=O)N2C[C@H](O)C[C@H]2C(=O)N[C@@H](Cc2c[nH]c3ccccc23)C(=O)N[C@@H](CO)C(=O)N[C@@H](Cc2csc3ccccc23)C(=O)N1C (stereo partly shown) [Example 9001] ({CH2CO}-Y[Ac3c]NPHL[Hyp]WS[Bta][NMeNle][NMeNle]R[ξC]G-NH2; thioether N-14) |
| 10 to 99 nM | CCCC[C@H]1C(=O)N(C)[C@@H](CCCC)C(=O)N[C@@H](CCCNC(=N)N)C(=O)NC(C(=O)NCC(N)=O)CSCC(=O)N[C@@H](Cc2ccc(O)cc2)C(=O)N(C)[C@@H](C)C(=O)N[C@@H](CC(N)=O)C(=O)N[C@]2(C[C@@H]2CC)C(=O)N[C@@H](Cc2cnc[nH]2)C(=O)N[C@@H](CC(C)C)C(=O)N2C[C@H](O)C[C@H]2C(=O)N[C@@H](Cc2c[nH]c3ccccc23)C(=O)N[C@@H](CO)C(=O)N[C@@H](Cc2csc3ccccc23)C(=O)N1C (stereo partly shown) [Example 10008] ({CH2CO}-Y[NMeA]N[X2]HL[Hyp]WS[Bta][NMeNle][NMeNle]R[ξC]G-NH2; thioether N-14) |
| 10 to 99 nM | CCCC[C@H]1C(=O)N(C)[C@@H](CCCC)C(=O)N[C@@H](CCCNC(=N)N)C(=O)NC(C(=O)NCC(N)=O)CSCC(=O)N[C@@H](Cc2ccc(O)cc2)C(=O)NC(C)(C)C(=O)N[C@@H](CC(N)=O)C(=O)N2CCC[C@H]2C(=O)N[C@@H](Cc2c[nH]cn2)C(=O)N[C@@H](CC(C)C)C(=O)N2C[C@H](O)C[C@H]2C(=O)N[C@@H](Cc2c[nH]c3ccccc23)C(=O)N[C@@H](CO)C(=O)N[C@@H](Cc2c[nH]c3ccccc23)C(=O)N1C (stereo partly shown) [Example 9004] |
| 10 to 99 nM | CCCC[C@H]1C(=O)N(C)[C@@H](CCCC)C(=O)N[C@@H](CCCNC(=N)N)C(=O)NC(C(=O)NCC(N)=O)CSCC(=O)N[C@@H](Cc2ccc(O)cc2)C(=O)NC(C)(C)C(=O)N[C@@H](CC(N)=O)C(=O)N2CCC[C@H]2C(=O)N[C@@H](Cc2c[nH]cn2)C(=O)N[C@@H](CC(C)C)C(=O)N2C[C@H](O)C[C@H]2C(=O)N[C@@H](Cc2c[nH]c3ccccc23)C(=O)N[C@@H](CO)C(=O)N[C@@H](Cc2csc3ccccc23)C(=O)N1C (stereo partly shown) [Example 9003] ({CH2CO}-Y[Aib]NPHL[Hyp]WS[Bta][NMeNle][NMeNle]R[ξC]G-NH2; thioether N-14) |
